Some test systems named below: TK-10 renal; DU-145 prostate; SW-620 colon; SN12C renal; UACC-62 melanoma; MALME-3M melanoma; SK-MEL-28 melanoma; SK-MEL-5 melanoma; SF-295 CNS; OVCAR-4 ovarian.
Common to all, as to assay: NCI anticancer screen, dose series, 48 h

Values joined by “and” are separate entries in the source; they are usually repeats but may differ in a detail not shown here. Equal entries are not always repeated.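 Five concentrations, 48 hours, 96-well plates. At the GI50, growth is halved. TGI: concentration producing complete growth inhibition.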

For `CSc1cnn(CCC#N)c(=O)n1`, the TGI in the test with TK-10 renal, in the test on DU-145 prostate, with SW-620 colon, in the test with SN12C renal, in the test with UACC-62 melanoma and in the test on MALME-3M melanoma was greater than 100 µM throughout. Besides, the TGI in the test on SK-MEL-28 melanoma, in the test with SK-MEL-5 melanoma and with SF-295 CNS was greater than 100 µM throughout.

With `COc1ccc(/C(Cl)=C(\C=O)c2ccc([N+](=O)[O-])cc2)cc1OC`, the TGI was greater than 47.3 µM in the test on TK-10 renal; greater than 100 µM in the test on DU-145 prostate; 28.1 µM in the test with SW-620 colon; 22.1 µM in the test with SN12C renal; 16.2 µM in the test with UACC-62 melanoma; 41 µM in the test on MALME-3M melanoma. Also, the TGI in the test with SK-MEL-28 melanoma was 30.5 µM; with SK-MEL-5 melanoma, 23 µM; in the test with SF-295 CNS it was 44.2 µM.

Take `OCCCN=NNc1ccc(-c2nc3ccccc3[nH]2)cc1`: the GI50 in the test on TK-10 renal is 31.9 µM; in the test on DU-145 prostate, 4.12 µM; with SW-620 colon, 3.04 µM; in the test on SN12C renal, 14.3 µM; with UACC-62 melanoma it was 17.6 µM; in the test on SK-MEL-28 melanoma, 2.47 µM. For the same compound, the values for the GI50 in the test on OVCAR-4 ovarian, with SK-MEL-5 melanoma and with SF-295 CNS were 3.78 µM, 15.6 µM and 2.87 µM, respectively. Also, the TGI in the test on TK-10 renal is 82.5 µM; in the test with DU-145 prostate, greater than 100 µM; in the test with SW-620 colon it was greater than 100 µM; with SN12C renal it was 46.6 µM; in the test with UACC-62 melanoma it was 50.8 µM; with SK-MEL-28 melanoma, 6.46 µM. In addition, the results for the TGI with OVCAR-4 ovarian, in the test with SK-MEL-5 melanoma and in the test on SF-295 CNS were greater than 100 µM, 88.6 µM and 7.58 µM, respectively.

For `CCCCCCCCCCCCCCCCCC1=NCCN1CS(=O)(=O)O`, the GI50 in the test with TK-10 renal was 18.6 µM; in the test on DU-145 prostate it was 5.19 µM; in the test on SW-620 colon, 7.19 µM; in the test with SN12C renal, 12.8 µM; with UACC-62 melanoma, 16.9 µM; with SK-MEL-28 melanoma, 19.2 µM. Moreover, the GI50 was 14.9 µM in the test on OVCAR-4 ovarian, 18.8 µM in the test with SK-MEL-5 melanoma and 3.55 µM in the test with SF-295 CNS. Also, the TGI with TK-10 renal amounted to 35.4 µM; in the test with DU-145 prostate, 17.2 µM; in the test with SW-620 colon it was 31.2 µM; with SN12C renal, 28.9 µM; in the test with UACC-62 melanoma it was 35.1 µM; in the test on SK-MEL-28 melanoma, 34.7 µM. The TGI in the test on OVCAR-4 ovarian came out at 33 µM; in the test on SK-MEL-5 melanoma it was 40.5 µM; with SF-295 CNS, 16.5 µM.

Take `CCN(CC)c1cc(/C=C/c2ccc(OC)c(OC)c2)nc2cc(F)c(F)cc12`: the GI50 in the test on TK-10 renal was 2.99 µM; in the test on DU-145 prostate, 31.6 µM; with SW-620 colon, greater than 100 µM; in the test on SN12C renal, 10.7 µM; with UACC-62 melanoma, 7.04 µM; in the test with SK-MEL-28 melanoma it was 14.9 µM. Besides, the GI50 in the test with OVCAR-4 ovarian was 27 µM; in the test with SK-MEL-5 melanoma it was 6.33 µM; with SF-295 CNS, 2.03 µM. For the same compound, the TGI in the test with TK-10 renal is 8.75 µM; with DU-145 prostate, greater than 100 µM; in the test with SW-620 colon, greater than 100 µM; with SN12C renal it was greater than 100 µM; in the test with UACC-62 melanoma, greater than 100 µM; in the test on SK-MEL-28 melanoma, greater than 100 µM. The TGI is greater than 100 µM with OVCAR-4 ovarian, greater than 100 µM in the test with SK-MEL-5 melanoma and 4.63 µM with SF-295 CNS.

Turning to `COC(=O)c1ccc2c(c1)nc(-c1cc3ccccc3[nH]c1=O)n2-c1cc(C(C)(C)C)[nH]n1`, the GI50 was 40 µM with TK-10 renal; 2.55 µM in the test with DU-145 prostate; greater than 23.7 µM with SN12C renal; 2.63 µM in the test with MALME-3M melanoma; greater than 100 µM in the test with OVCAR-4 ovarian; 2.61 µM in the test with SK-MEL-5 melanoma. The GI50 with SF-295 CNS is 2.14 µM. Also, the TGI was greater than 74.7 µM in the test with TK-10 renal; greater than 100 µM in the test with DU-145 prostate; greater than 100 µM with SN12C renal; greater than 100 µM in the test on MALME-3M melanoma; greater than 100 µM in the test on OVCAR-4 ovarian; greater than 100 µM with SK-MEL-5 melanoma. Moreover, in the test on SF-295 CNS, the TGI was greater than 50.5 µM.

For the compound `CN(C)c1ccc(C(=C2C=CC(=[N+](C)C)C=C2)c2ccc(N(C)C)cc2)cc1` (tested in a mixture with another compound), the GI50 was 0.0394 µM in the test on TK-10 renal; 0.0543 µM in the test on DU-145 prostate; 0.0476 µM in the test with SW-620 colon; 0.127 µM with MALME-3M melanoma; 0.141 µM in the test with SK-MEL-28 melanoma; 0.183 µM in the test with OVCAR-4 ovarian. Moreover, the values for the GI50 in the test with SK-MEL-5 melanoma and in the test on SF-295 CNS were 0.133 µM and 0.0483 µM, respectively. Also, the TGI in the test on TK-10 renal amounted to 0.321 µM; in the test with DU-145 prostate, 1.28 µM; in the test on SW-620 colon, 1.35 µM; in the test on UACC-62 melanoma, 1.24 µM; in the test on MALME-3M melanoma it was 0.56 µM; in the test with SK-MEL-28 melanoma, 1.37 µM. For the same compound, the TGI with OVCAR-4 ovarian was 1.32 µM; with SK-MEL-5 melanoma, 0.289 µM; with SF-295 CNS it was 0.396 µM.

Take `O=C(OCc1ccccc1)N1CCN(/[N+]([O-])=N/Oc2ccc([N+](=O)[O-])cc2[N+](=O)[O-])CC1`: the GI50 with TK-10 renal is 17.6 µM; in the test on DU-145 prostate it was 5.56 µM; in the test with SW-620 colon, 3.79 µM; in the test with SN12C renal it was 11.5 µM; with UACC-62 melanoma, 6.72 µM; with SK-MEL-28 melanoma, 13.2 µM. Also, the results for the GI50 with SK-MEL-5 melanoma and in the test with SF-295 CNS were 6.43 µM and 21.5 µM, respectively. For the same compound, the TGI was 33.4 µM in the test with TK-10 renal; 18.7 µM in the test on DU-145 prostate; greater than 100 µM in the test on SW-620 colon; 30.1 µM in the test on SN12C renal; 20.8 µM in the test with UACC-62 melanoma; 31.1 µM with SK-MEL-28 melanoma. In addition, the TGI in the test on SK-MEL-5 melanoma was found to be 21.1 µM; in the test on SF-295 CNS, 49.4 µM.

Turning to `CC[C@H]1CN2CCc3cc(OC)c(OC)cc3[C@@H]2C[C@@H]1C[C@H]1NCCc2cc(O)c(OC)cc21`, the GI50 in the test on TK-10 renal was 0.0278 µM and < 0.0128 µM; in the test with DU-145 prostate it was 0.0233 µM. Further, the TGI in the test on TK-10 renal was 0.0644 µM; in the test with DU-145 prostate, 0.0637 µM and 0.137 µM; in the test with SW-620 colon, 0.0585 µM and < 0.0212 µM and 0.19 µM; in the test with SN12C renal, 0.0787 µM and 0.552 µM; in the test on UACC-62 melanoma, 0.0725 µM and 0.0247 µM and 0.105 µM; with MALME-3M melanoma, 0.0795 µM and 0.355 µM and 0.265 µM. The TGI in the test with SK-MEL-28 melanoma was 0.0678 µM and 0.0487 µM and 0.266 µM; in the test on SK-MEL-5 melanoma, 0.0424 µM and 0.0157 µM and 0.114 µM; in the test on SF-295 CNS it was 0.0674 µM and 0.0385 µM and 0.153 µM.

In the case of `C[C@]12CCC[C@H](Cl)C1(O)C[C@H](C(=O)O)CC2` (some centres undefined), the TGI in the test on TK-10 renal, with SW-620 colon, in the test on SN12C renal, in the test on UACC-62 melanoma, in the test on MALME-3M melanoma and with SK-MEL-28 melanoma was greater than 100 µM throughout. Moreover, the TGI in the test with OVCAR-4 ovarian, in the test on SK-MEL-5 melanoma and in the test on SF-295 CNS was greater than 100 µM in each case.

(Values after PubChem BioAssay (NCI).)
